# Assay results from publication PMC3402541, “Guanidylation and Tail Effects in Cationic Antimicrobial Lipopeptoids” (PLoS ONE, 2012).
# Tests used:
# K.pneumoniae ATCC 13883 = assay type: cell-based, Klebsiella pneumoniae; conditions: ATCC 13883, Mueller-Hinton broth, 24 hr, 37°C, without replication; for MIC K.pneumoniae in the presence of 4% bovine serum albumin: 4% BSA added, macrobroth dilution; for MIC K.pneumoniae: CLSI macrobroth dilution, 5 x 10^5 CFU/mL
# How it was run: (§1)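 Each strain, after two subcultures from frozen stock, was tested in glass tubes against doubling compound dilutions. Medium: cation-adjusted Mueller-Hinton broth; inoculum ~5 × 10^5 CFU/mL; 37°C, 24 hr.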
# P.aeruginosa ATCC 27853 = assay type: cell-based, Pseudomonas aeruginosa; conditions: ATCC 27853, Mueller-Hinton broth, 24 hr, 37°C, without replication; for MIC P.aeruginosa in the presence of 4% bovine serum albumin: 4% BSA added, macrobroth dilution; for MIC P.aeruginosa: CLSI macrobroth dilution, 5 x 10^5 CFU/mL
# How it was run: as §1
# [1] = system: A. baumannii CAN-ICU 63169; assay type: cell-based, Acinetobacter baumannii; conditions: CAN-ICU 63169, Mueller-Hinton broth, 24 hr, 37°C, without replication; for MIC A. baumannii in the presence of 4% bovine serum albumin: 4% BSA added, macrobroth dilution; for MIC A. baumannii: CLSI macrobroth dilution, 5 x 10^5 CFU/mL
# How it was run: as §1
# Gram negative bacteria = test: MIC with 4% BSA, summary over Gram negative strains; assay type: cell-based; conditions: 4% BSA added
# Procedure: Antimicrobial activity of the purified lipopeptoids was determined without replication against a panel of clinically relevant and standard reference bacterial strains according to CLSI macrobroth standards. Stock solutions at 512 µg/mL were prepared in water, with DMSO as needed, and testing was performed in glass test tubes using Muller-Hinton broth and bacteria adjusted to 5 × 10^5 CFU/mL. Bacteria were incubated with the lipopeptoid of interest for 24 hr at 37°C prior to reading. […]
# After subculturing the relevant bacteria twice from frozen stock, in vitro activities of the antimicrobials were determined by macrobroth dilution methodology in accordance with the Clinical and Laboratory Standards Institute (CLSI) guidelines (3). The MICs were determined using glass test tubes (2 mL/tube) containing doubling antimicrobial dilutions of cation adjusted Mueller-Hinton broth inoculated to achieve a final concentration of approximately 5 x 10^5 CFU/mL, incubated in ambient air for 24 hr prior to reading. […]
Structure (SMILES),MIC K.pneumoniae in the presence of 4% bovine serum albumin (K.pneumoniae ATCC 13883) [µg/mL],MIC K.pneumoniae (K.pneumoniae ATCC 13883) [µg/mL],MIC P.aeruginosa in the presence of 4% bovine serum albumin (P.aeruginosa ATCC 27853) [µg/mL],MIC P.aeruginosa (P.aeruginosa ATCC 27853) [µg/mL],MIC A. baumannii in the presence of 4% bovine serum albumin [1] [µg/mL],MIC A. baumannii [1] [µg/mL],MIC against Gram negative bacteria with 4% BSA (Gram negative bacteria) [µg/mL]
"CCCCCCCCCCCCCCCC[N+](C)(C)C.[Cl-] [CTAC, Cetyltrimethylammonium chloride, reference compound]",512,16,>512,128,512,32,≥ 512
NCCCCN(CC(N)=O)C(=O)CNC(=O)CN(CCCCN)C(=O)CCC(F)(F)C(F)(F)C(F)(F)C(F)(F)C(F)(F)C(F)(F)C(F)(F)C(F)(F)F [F11-NlysGNlys],>512,>512,>512,512,>512,>512,–
NCCCCN(CC(N)=O)C(=O)CN(CCCCN)C(=O)CN(CCCCN)C(=O)CCC(F)(F)C(F)(F)C(F)(F)C(F)(F)C(F)(F)C(F)(F)C(F)(F)C(F)(F)F [F11-NlysNlysNlys],>512,>512,512,128,>512,>512,–
